# According to patent US6057359A, “Spontaneously dispersible concentrates comprising esters of baccatin-III compounds having antitumor and antiviral activity” (Marigen S.A., priority 1997, dated 2000):
# Experiments:
# [1] = tested on: Py6 cells (Virus transformed 3T3 mouse-fibroblasts); experiment: Test of cell toxicity / cytotoxicity of MARIGENOL concentrates on Py6 cells (plaque assay, serial dilution); assay type: cell-based
# Protocol: A biological assay system using microtiter plates and serial dilutions has been developed. Batches of 10^4 tumour cells per ml were set up in culture medium RPMI 1640 and inactivated with 10% of fetal calf serum (GIBCO); they are spread at a density low enough to enable them to grow during the assay, in non-confluent monolayers. Samples are added after 6 to 24 hours, with 100 μl per row, to which 100 μl of medium are added in the first well. Half of this mixture is withdrawn, transferred into the next well and again treated with 100 μl of medium, etc.
# […] They are then stained and fixed using 0.1% crystal violet (Fluka, Buchs) in a solution of 70% of methanol, 1% of formaldehyde and 29% of water. The samples are evaluated under the microscope, magnification 300×. The greatest cytotoxic dilution is determined. The samples can also be evaluated quantitatively by means of scanning and absorption measurement in a spectrophotometer.
# N.B.: On the subject of the eternalized Py6-cells cf.: "Biochemistry", Coordinating Editor Geoffrey L. Zubay, Addison-Wesley Publishing Company, 1983, p.1079.
# LEUKEMIA K 562 = experiment: Vitality/proliferation test (Tritium), leukemia K 562; assay type: cell-based, human; details: controls 50'037 cpm
# From the text: (§1) 4.0 Comparative assays with human tumor cell lines
# (§2) VITALITY TEST/1%-MARIGENOL-CONCENTRATE
# (§3) 1 × 10^4 cells per well
# (§4) Proliferation test (Tritium: 1 μCi/well H^+)
# LEUKEMIA DAUDI-LINE = experiment: Vitality/proliferation test (Tritium), leukemia Daudi-line; assay type: cell-based, human; details: controls 23'090 cpm
# From the text: as §1, §2, §3, §4
# [2] = tested on: HIV isolates from patients (strains 21/4 and 4/5); experiment: Effect on HIV infectivity, residual HIV titre (direct antiviral efficacy); assay type: cell-based
# Protocol: Aliquote amounts of two HIV isolates from patients (strains 21/4 and 4/5) resuspended in complete RPMI medium at a titre of 300 CCID50 /ml were incubated during 3 hours, +4° C. with MARIGENOL®-concentrate, in the form of an aqueous microemulsion, at concentrations ranging from 10^-2 to 10^-5 in complete medium, as well as with ("empty") carrier concentrate and with medium alone as controls.
# After pre-incubation, residual HIV titre was assessed by the CCID50 method (Cell-culture infecting dose 50%). Briefly, serial twofold dilutions were prepared from each of the six virus suspensions, and 200 μl of each dilution were incubated for 90 minutes with MT-4 cell pellets prepared as stated before (see 7.1). At the end of incubation, pellets were brought to initial cell concentration by adding appropriate amounts of complete RPMI medium to each tube, whose content was then distributed into 8 wells of a flat-bottom microtitre plate in 200 μl volumes, each vertical row coresponding to a dilution. After 5 days of incubation, cell viability was assessed by the MTT test as stated above, and the HIV titre was expressed as the reciprocal of that dilution which infects 4 out of 8 wells (50%) in a row. A well was considered infected when its O.D. readout at 550 nm was lower than the average readout of 8 control wells minus 2.8 times the standard error of the mean (lower 95% confidence limit).
Compound,"in dilution active up to 1: (calculated on active substance content, A.S.) ([1]; 24 h exposure)","in dilution active up to 1: (calculated on active substance content, A.S.) ([1]; 48 h exposure)","in dilution active up to 1: (calculated on active substance content, A.S.) ([1]; 72 h exposure)","in dilution active up to 1: (microemulsion ME 1:100) ([1]; 72 h exposure, dilution of ME 1:100, given in Mio.)",Proliferation test % (LEUKEMIA K 562; 10^-3),Proliferation test cpm (LEUKEMIA K 562; 10^-3),Proliferation test % (LEUKEMIA K 562; 10^-4),Proliferation test cpm (LEUKEMIA K 562; 10^-4),Proliferation test % (LEUKEMIA K 562; 10^-5),Proliferation test % (LEUKEMIA DAUDI-LINE; 10^-3),Proliferation test cpm (LEUKEMIA DAUDI-LINE; 10^-3),Proliferation test % (LEUKEMIA DAUDI-LINE; 10^-4),Proliferation test cpm (LEUKEMIA DAUDI-LINE; 10^-4),Proliferation test % (LEUKEMIA DAUDI-LINE; 10^-5),"RESIDUAL HIV TITRE (CCID50) ([2]; concentrate 1'000 ppm, active substance 10 ppm, mean titre of 2 strains, 3 h, +4° C.)",inhibition of HIV infectivity ([2]; pre-treatment with 1%-concentrate)
"C=CCCCCCCCCC(=O)O[C@H]1C[C@@]2(O)[C@@H](OC(=O)c3ccccc3)[C@@H]3[C@]4(OC(C)=O)CO[C@@H]4C[C@H](OC(=O)CCCCCCCCC=C)[C@@]3(C)C(=O)[C@H](OC(C)=O)C(=C1C)C2(C)C [BACCATIN III-DI-UNDECENOATE, 7,13-Baccatin-III-diundecenoate]",12.8 Mio.,25.6 Mio.,100 Mio.,1 Mio.,0.9%,466 cpm,1.3%,665 cpm,9.5%,1.2%,293 cpm,2.8%,653 cpm,41.7%,,
CCCCCCCCCCCCCCCC(=O)Oc1cc(OC(=O)CCCCCCCCCCCCCCC)c2c(=O)cc(-c3ccccc3)oc2c1 [CHRYSIN-DI-PALMITATE],12.8 Mio.,51.2 Mio.,51.2 Mio.,,,,,,,,,,,,,
"C=CCCCCCCCCC(=O)O[C@H]1CC[C@@]2(C)C(=CC=C3[C@@H]4CC[C@H]([C@H](C)/C=C/[C@H](C)C(C)C)[C@@]4(C)CC[C@@H]32)C1 [ERGOSTERYL-10-UNDECENOATE, (3β, 22E)-Ergosta-5,7,22-triene-3-ol-10-undecenoate]",,,,,,,,,,,,,,,25 CCID50,somewhat less potent inhibition
7-Baccatin III-all trans-retinoate,12.8 Mio.,25.6 Mio.,25.6 Mio.,,0.8%,415 cpm,1.6%,822 cpm,15.0%,1.1%,256 cpm,1.7%,412 cpm,52.7%,,
CCCCCCCCCCCCCCCC(=O)Oc1ccc(-c2oc3cc(OC(=O)CCCCCCCCCCCCCCC)cc(OC(=O)CCCCCCCCCCCCCCC)c3c(=O)c2OC(=O)CCCCCCCCCCCCCCC)c(OC(=O)CCCCCCCCCCCCCCC)c1 [MOREN-PENTA-PALMITATE],6.4 Mio.,51.2 Mio.,51.2 Mio.,,,,,,,,,,,,,
